Experimental data taken from ChEMBL document CHEMBL4507257, “Data for DCP probe ABT-100” (2021).

Columns and labels:
[1] = biological target: Calcium/calmodulin-dependent protein kinase kinase 1 (Homo sapiens) (UniProt Q8N5S9); conditions: Compound concentration 1000.0 nM
[2] = biological target: Serine/threonine-protein kinase PRP4 homolog (Homo sapiens) (UniProt Q13523); conditions: Compound concentration 1000.0 nM
[3] = biological target: Casein kinase I isoform alpha (Homo sapiens) (UniProt P48729); conditions: Compound concentration 1000.0 nM
[4] = biological target: Cyclin-dependent kinase 7 (Homo sapiens, UniProt P50613); conditions: Compound concentration 1000.0 nM
[5] = biological target: Phosphatidylinositol 4,5-bisphosphate 3-kinase catalytic subunit delta isoform (Homo sapiens) (UniProt O00329); conditions: Compound concentration 1000.0 nM
[6] = biological target: Casein kinase I isoform gamma-1 (Homo sapiens) (UniProt Q9HCP0); conditions: Compound concentration 1000.0 nM
[7] = biological target: Phosphorylase b kinase regulatory subunit alpha, liver isoform (Homo sapiens) (UniProt P46019); conditions: Compound concentration 1000.0 nM
[8] = biological target: Wee1-like protein kinase 2 (Homo sapiens) (UniProt P0C1S8); conditions: Compound concentration 1000.0 nM
[9] = biological target: Mitogen-activated protein kinase kinase kinase kinase 2 (Homo sapiens) (UniProt Q12851); conditions: Compound concentration 1000.0 nM
[10] = biological target: Rho-associated protein kinase 2 (Homo sapiens) (UniProt O75116); conditions: Compound concentration 1000.0 nM
[11] = biological target: 5'-AMP-activated protein kinase catalytic subunit alpha-2 (Homo sapiens) (UniProt P54646); conditions: Compound concentration 1000.0 nM
[12] = biological target: Homeodomain-interacting protein kinase 2 (Homo sapiens, UniProt Q9H2X6); conditions: Compound concentration 1000.0 nM
[13] = test system: Epidermal growth factor receptor (Homo sapiens), P00533 [UNDEFINED MUTATION]; conditions: Compound concentration 1000.0 nM
[14] = biological target: Tyrosine-protein kinase ABL2 (Homo sapiens) (UniProt P42684); conditions: Compound concentration 1000.0 nM
[15] = biological target: Serine/threonine-protein kinase SIK1 (Homo sapiens) (UniProt P57059); conditions: Compound concentration 1000.0 nM
[16] = biological target: 5-hydroxytryptamine receptor 6 (Homo sapiens) (UniProt P50406); conditions: Compound concentration 10.0 uM
[17] = biological target: Myosin light chain kinase family member 4 (Homo sapiens) (UniProt Q86YV6); conditions: Compound concentration 1000.0 nM
[18] = biological target: Activin receptor type-2B (Homo sapiens) (UniProt Q13705); conditions: Compound concentration 1000.0 nM
[19] = biological target: Citron Rho-interacting kinase (Homo sapiens) (UniProt O14578); conditions: Compound concentration 1000.0 nM
[20] = biological target: Delta-type opioid receptor (Homo sapiens) (UniProt P41143); conditions: Compound concentration 10.0 uM
[21] = biological target: Myosin-IIIa (Homo sapiens) (UniProt Q8NEV4); conditions: Compound concentration 1000.0 nM
[22] = biological target: Protein-tyrosine kinase 2-beta (Homo sapiens) (UniProt Q14289); conditions: Compound concentration 1000.0 nM
[23] = biological target: Alpha-1A adrenergic receptor (Homo sapiens) (UniProt P35348); conditions: Compound concentration 10.0 uM
[24] = biological target: Dual specificity mitogen-activated protein kinase kinase 1 (Homo sapiens) (UniProt Q02750); conditions: Compound concentration 1000.0 nM
[25] = biological target: Calcium/calmodulin-dependent protein kinase type II subunit delta (Homo sapiens) (UniProt Q13557); conditions: Compound concentration 1000.0 nM
[26] = biological target: Myotonin-protein kinase (Homo sapiens) (UniProt Q09013); conditions: Compound concentration 1000.0 nM
[27] = test system: Tyrosine-protein kinase ABL1 (Homo sapiens), P00519 [Y253F]; conditions: Compound concentration 1000.0 nM
[28] = biological target: Histamine H4 receptor (Homo sapiens) (UniProt Q9H3N8); conditions: Compound concentration 10.0 uM
[29] = biological target: Receptor-interacting serine/threonine-protein kinase 4 (Homo sapiens) (UniProt P57078); conditions: Compound concentration 1000.0 nM
[30] = test system: Epidermal growth factor receptor (Homo sapiens), P00533 [L858R,T790M]; conditions: Compound concentration 1000.0 nM
[31] = biological target: Serine/threonine-protein kinase WNK1 (Homo sapiens) (UniProt Q9H4A3); conditions: Compound concentration 1000.0 nM
[32] = test system: Phosphatidylinositol 4,5-bisphosphate 3-kinase catalytic subunit alpha isoform (Homo sapiens), P42336 [M1043I]; conditions: Compound concentration 1000.0 nM
[33] = biological target: Receptor tyrosine-protein kinase erbB-3 (Homo sapiens) (UniProt P21860); conditions: Compound concentration 1000.0 nM
[34] = biological target: RAC-alpha serine/threonine-protein kinase (Homo sapiens) (UniProt P31749); conditions: Compound concentration 1000.0 nM
[35] = test system: Phosphatidylinositol 4,5-bisphosphate 3-kinase catalytic subunit alpha isoform (Homo sapiens), P42336 [C420R]; conditions: Compound concentration 1000.0 nM
[36] = biological target: Serine/threonine-protein kinase DCLK1 (Homo sapiens) (UniProt O15075); conditions: Compound concentration 1000.0 nM
[37] = biological target: Casein kinase I isoform delta (Homo sapiens) (UniProt P48730); conditions: Compound concentration 1000.0 nM
[38] = biological target: Dual specificity mitogen-activated protein kinase kinase 7 (Homo sapiens) (UniProt O14733); conditions: Compound concentration 1000.0 nM
[39] = biological target: Fibroblast growth factor receptor 3 (Homo sapiens) (UniProt P22607); conditions: Compound concentration 1000.0 nM
[40] = biological target: Calcium/calmodulin-dependent protein kinase type II subunit alpha (Homo sapiens) (UniProt Q9UQM7); conditions: Compound concentration 1000.0 nM
[41] = biological target: Cyclin-dependent kinase 11A (Homo sapiens) (UniProt Q9UQ88); conditions: Compound concentration 1000.0 nM
[42] = biological target: Serine/threonine-protein kinase STK11 (Homo sapiens) (UniProt Q15831); conditions: Compound concentration 1000.0 nM
[43] = test system: Proto-oncogene tyrosine-protein kinase receptor Ret (Homo sapiens), P07949 [V804L]; conditions: Compound concentration 1000.0 nM
[44] = biological target: Phosphatidylinositol 4-kinase beta (Homo sapiens) (UniProt Q9UBF8); conditions: Compound concentration 1000.0 nM
[45] = biological target: Ephrin type-A receptor 1 (Homo sapiens) (UniProt P21709); conditions: Compound concentration 1000.0 nM
Ephrin type-A receptor 1 (Homo sapiens), sequence (P21709 whole entry): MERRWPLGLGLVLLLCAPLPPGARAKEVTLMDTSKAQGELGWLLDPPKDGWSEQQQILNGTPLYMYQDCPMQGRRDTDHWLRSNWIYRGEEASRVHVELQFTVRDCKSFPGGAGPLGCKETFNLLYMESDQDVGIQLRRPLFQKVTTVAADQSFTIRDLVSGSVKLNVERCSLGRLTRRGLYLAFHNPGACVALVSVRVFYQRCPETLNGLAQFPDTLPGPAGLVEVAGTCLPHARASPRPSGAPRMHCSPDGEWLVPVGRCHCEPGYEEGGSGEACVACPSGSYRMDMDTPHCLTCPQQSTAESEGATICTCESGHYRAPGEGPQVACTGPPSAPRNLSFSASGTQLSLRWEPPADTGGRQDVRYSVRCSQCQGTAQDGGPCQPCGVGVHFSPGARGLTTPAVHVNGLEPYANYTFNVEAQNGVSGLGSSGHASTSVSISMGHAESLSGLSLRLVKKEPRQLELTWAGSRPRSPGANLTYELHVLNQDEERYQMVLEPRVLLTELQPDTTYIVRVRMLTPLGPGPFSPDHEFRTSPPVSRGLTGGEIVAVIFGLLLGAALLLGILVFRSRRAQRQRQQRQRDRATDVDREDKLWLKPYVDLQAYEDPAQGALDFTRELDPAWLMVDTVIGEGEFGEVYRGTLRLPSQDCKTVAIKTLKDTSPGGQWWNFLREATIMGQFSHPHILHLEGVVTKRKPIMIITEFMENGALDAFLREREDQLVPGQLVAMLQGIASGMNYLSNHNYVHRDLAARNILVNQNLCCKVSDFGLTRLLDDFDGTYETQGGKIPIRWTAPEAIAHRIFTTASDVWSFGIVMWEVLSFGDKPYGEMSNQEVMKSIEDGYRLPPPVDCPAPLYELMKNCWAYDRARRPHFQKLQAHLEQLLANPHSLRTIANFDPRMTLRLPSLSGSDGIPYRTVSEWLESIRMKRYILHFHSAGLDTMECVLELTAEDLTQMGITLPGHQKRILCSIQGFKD

Cyclin-dependent kinase 11A (Homo sapiens), sequence (Q9UQ88 whole entry): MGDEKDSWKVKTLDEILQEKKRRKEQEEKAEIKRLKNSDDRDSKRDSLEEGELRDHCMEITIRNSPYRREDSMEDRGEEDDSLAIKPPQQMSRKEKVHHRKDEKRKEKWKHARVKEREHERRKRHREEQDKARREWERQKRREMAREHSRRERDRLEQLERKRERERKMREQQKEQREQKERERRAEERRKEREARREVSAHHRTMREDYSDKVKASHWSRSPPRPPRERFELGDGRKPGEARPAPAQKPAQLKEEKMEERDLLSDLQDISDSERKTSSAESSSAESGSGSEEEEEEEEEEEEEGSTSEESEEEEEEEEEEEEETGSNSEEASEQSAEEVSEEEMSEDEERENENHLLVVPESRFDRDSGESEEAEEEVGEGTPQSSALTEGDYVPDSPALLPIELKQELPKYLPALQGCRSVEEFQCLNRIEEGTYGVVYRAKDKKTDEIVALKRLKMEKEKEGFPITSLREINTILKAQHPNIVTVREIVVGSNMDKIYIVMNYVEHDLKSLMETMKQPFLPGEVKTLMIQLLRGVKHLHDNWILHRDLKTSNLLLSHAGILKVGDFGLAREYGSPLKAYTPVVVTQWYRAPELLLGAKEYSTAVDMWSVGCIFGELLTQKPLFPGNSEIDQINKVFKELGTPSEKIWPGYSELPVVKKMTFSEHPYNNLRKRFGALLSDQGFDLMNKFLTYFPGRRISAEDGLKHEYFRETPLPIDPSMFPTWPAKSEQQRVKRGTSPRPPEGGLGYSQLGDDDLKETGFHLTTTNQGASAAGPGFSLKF
Alpha-1A adrenergic receptor (Homo sapiens), sequence (P35348 whole entry): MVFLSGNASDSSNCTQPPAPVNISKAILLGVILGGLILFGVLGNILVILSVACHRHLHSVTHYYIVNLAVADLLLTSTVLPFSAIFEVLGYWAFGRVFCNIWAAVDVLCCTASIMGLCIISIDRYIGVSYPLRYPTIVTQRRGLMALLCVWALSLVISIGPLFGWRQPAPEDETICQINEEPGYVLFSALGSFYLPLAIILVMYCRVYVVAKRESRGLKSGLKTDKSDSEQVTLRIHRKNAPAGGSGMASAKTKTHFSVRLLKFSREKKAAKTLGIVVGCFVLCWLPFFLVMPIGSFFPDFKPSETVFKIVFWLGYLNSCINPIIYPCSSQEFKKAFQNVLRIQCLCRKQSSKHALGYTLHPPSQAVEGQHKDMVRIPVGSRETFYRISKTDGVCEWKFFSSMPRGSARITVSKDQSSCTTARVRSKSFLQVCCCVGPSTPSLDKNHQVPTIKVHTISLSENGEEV
Phosphorylase b kinase regulatory subunit alpha, liver isoform (Homo sapiens), sequence (P46019 whole entry, canonical isoform): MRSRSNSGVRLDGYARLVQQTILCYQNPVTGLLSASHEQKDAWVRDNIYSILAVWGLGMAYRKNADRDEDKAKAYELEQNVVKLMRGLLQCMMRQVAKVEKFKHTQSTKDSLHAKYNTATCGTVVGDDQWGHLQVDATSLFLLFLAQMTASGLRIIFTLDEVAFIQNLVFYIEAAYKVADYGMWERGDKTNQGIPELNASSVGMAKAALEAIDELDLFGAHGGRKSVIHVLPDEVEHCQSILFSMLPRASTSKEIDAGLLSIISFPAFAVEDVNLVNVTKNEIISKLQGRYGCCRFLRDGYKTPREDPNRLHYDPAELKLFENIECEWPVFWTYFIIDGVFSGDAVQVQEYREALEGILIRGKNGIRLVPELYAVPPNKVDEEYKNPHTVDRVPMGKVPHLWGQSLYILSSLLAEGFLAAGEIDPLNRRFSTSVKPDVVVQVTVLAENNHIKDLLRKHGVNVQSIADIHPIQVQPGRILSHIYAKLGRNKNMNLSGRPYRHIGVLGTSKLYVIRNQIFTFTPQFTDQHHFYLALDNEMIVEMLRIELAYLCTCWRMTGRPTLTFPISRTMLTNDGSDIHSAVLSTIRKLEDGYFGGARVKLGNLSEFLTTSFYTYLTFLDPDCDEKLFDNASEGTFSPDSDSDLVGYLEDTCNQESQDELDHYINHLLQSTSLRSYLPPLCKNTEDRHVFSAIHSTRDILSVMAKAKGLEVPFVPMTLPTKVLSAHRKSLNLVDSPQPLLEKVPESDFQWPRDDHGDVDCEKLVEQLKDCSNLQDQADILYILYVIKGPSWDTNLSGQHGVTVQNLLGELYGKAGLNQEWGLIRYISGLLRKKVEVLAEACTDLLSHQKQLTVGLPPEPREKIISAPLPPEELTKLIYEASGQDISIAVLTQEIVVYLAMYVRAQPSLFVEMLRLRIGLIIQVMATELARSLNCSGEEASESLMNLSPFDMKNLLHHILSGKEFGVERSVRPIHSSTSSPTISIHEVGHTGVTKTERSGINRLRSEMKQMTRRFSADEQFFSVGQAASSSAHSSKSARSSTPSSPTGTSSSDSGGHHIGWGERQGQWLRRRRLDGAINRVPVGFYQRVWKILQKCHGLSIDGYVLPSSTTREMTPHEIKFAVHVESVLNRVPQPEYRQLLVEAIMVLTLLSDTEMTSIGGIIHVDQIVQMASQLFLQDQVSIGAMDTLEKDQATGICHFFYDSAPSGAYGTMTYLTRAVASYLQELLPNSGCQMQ
Myosin light chain kinase family member 4 (Homo sapiens), sequence (Q86YV6 whole entry): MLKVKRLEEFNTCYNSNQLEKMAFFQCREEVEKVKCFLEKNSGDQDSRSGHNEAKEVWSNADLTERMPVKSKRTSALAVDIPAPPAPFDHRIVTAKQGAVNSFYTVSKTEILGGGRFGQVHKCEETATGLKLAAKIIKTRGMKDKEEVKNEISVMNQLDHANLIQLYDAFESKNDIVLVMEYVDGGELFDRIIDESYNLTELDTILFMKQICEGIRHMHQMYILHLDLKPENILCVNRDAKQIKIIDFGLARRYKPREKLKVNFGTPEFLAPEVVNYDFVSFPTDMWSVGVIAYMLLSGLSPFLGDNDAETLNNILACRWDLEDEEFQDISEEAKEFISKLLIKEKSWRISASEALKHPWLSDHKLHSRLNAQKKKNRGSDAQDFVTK
Phosphatidylinositol 4,5-bisphosphate 3-kinase catalytic subunit alpha isoform (Homo sapiens), P42336 [M1043I], sequence (P42336 whole entry M1043I, canonical isoform): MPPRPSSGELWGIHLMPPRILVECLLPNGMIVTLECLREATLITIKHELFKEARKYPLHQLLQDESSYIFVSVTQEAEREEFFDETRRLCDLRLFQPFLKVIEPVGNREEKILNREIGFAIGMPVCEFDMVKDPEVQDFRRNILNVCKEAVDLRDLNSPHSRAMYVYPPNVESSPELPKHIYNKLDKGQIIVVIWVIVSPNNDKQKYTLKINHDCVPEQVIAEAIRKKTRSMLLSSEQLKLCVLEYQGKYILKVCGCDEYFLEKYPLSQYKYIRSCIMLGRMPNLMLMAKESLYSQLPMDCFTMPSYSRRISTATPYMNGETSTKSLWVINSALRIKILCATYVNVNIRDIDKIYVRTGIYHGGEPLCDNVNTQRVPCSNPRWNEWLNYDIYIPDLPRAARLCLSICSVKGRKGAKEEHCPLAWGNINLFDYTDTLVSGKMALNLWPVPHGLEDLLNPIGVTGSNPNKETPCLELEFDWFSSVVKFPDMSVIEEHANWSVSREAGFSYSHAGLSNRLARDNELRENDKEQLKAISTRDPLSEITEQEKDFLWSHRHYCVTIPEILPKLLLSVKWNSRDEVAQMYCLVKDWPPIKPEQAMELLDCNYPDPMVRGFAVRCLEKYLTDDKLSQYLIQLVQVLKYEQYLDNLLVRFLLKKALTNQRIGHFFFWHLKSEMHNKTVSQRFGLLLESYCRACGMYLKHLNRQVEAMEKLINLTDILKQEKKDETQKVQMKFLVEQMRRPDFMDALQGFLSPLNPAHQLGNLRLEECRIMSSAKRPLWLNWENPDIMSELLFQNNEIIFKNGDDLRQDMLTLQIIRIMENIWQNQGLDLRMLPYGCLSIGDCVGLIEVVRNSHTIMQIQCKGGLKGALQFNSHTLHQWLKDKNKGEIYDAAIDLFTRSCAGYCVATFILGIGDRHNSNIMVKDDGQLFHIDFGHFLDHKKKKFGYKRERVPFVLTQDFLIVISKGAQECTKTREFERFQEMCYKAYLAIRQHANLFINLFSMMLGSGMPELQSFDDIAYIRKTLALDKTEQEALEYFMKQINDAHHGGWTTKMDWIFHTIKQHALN
Phosphatidylinositol 4,5-bisphosphate 3-kinase catalytic subunit alpha isoform (Homo sapiens), P42336 [C420R], sequence (P42336 whole entry C420R, canonical isoform): as the sequence (P42336 whole entry M1043I, canonical isoform) above, with C420R, I1043M counted along it

Cn1cncc1[C@@](O)(COc1ccc(C#N)cc1-c1ccc(OC(F)(F)F)cc1)c1ccc(C#N)cc1 [A-108]
residual activity [1]: 100% | residual activity [2]: 100% | residual activity [3]: 78% | residual activity [4]: 63% | residual activity [5]: 84% | residual activity [6]: 91% | residual activity [7]: 92% | residual activity [8]: 100% | residual activity [9]: 100% | residual activity [10]: 100% | residual activity [11]: 87% | residual activity [12]: 100% | residual activity [13]: 64% | residual activity [14]: 100% | residual activity [15]: 100% | inhibition [16]: 14.2% | residual activity [17]: 97% | residual activity [18]: 100% | residual activity [19]: 97% | inhibition [20]: 2.4% | residual activity [21]: 98% | residual activity [22]: 100% | inhibition [23]: 4.51% | residual activity [24]: 89% | residual activity [25]: 95% | residual activity [26]: 94% | residual activity [27]: 92% | inhibition [28]: -3.79% | residual activity [29]: 94% | residual activity [30]: 96% | residual activity [31]: 100% | residual activity [32]: 72% | residual activity [33]: 89% | residual activity [34]: 100% | residual activity [35]: 90% | residual activity [36]: 87% | residual activity [37]: 94% | residual activity [38]: 96% | residual activity [39]: 100% | residual activity [40]: 84% | residual activity [41]: 100% | residual activity [42]: 100% | residual activity [43]: 89% | residual activity [44]: 80% | residual activity [45]: 93%

Cn1cncc1[C@](O)(COc1ccc(C#N)cc1-c1ccc(OC(F)(F)F)cc1)c1ccc(C#N)cc1 [ABT-100]
residual activity [1]: 77% | residual activity [2]: 100% | residual activity [3]: 100% | residual activity [4]: 95% | residual activity [5]: 79% | residual activity [6]: 90% | residual activity [7]: 92% | residual activity [8]: 84% | residual activity [9]: 100% | residual activity [10]: 94% | residual activity [11]: 100% | residual activity [12]: 100% | residual activity [13]: 78% | residual activity [14]: 83% | residual activity [15]: 95% | inhibition [16]: 6.74% | residual activity [17]: 93% | residual activity [18]: 100% | residual activity [19]: 77% | inhibition [20]: -0.182% | residual activity [21]: 100% | residual activity [22]: 62% | inhibition [23]: -7.75% | residual activity [24]: 100% | residual activity [25]: 100% | residual activity [26]: 98% | residual activity [27]: 94% | inhibition [28]: -6.36% | residual activity [29]: 100% | residual activity [30]: 100% | residual activity [31]: 100% | residual activity [32]: 100% | residual activity [33]: 87% | residual activity [34]: 84% | residual activity [35]: 100% | residual activity [36]: 94% | residual activity [37]: 100% | residual activity [38]: 100% | residual activity [39]: 83% | residual activity [40]: 95% | residual activity [41]: 100% | residual activity [42]: 71% | residual activity [43]: 82% | residual activity [44]: 94% | residual activity [45]: 38%
